Experimental data from PMC10447463, “Data-mining unveils structure–property–activity correlation of viral infectivity enhancing self-assembling peptides” (Nature Communications, 2023).
Like-named read-outs stand apart in the source and are kept apart here.

Legend:
[1] = Turbidity, derived count rate of scattered light; assay type: physicochemical; details: for Log Count Rate: log of derived count rate; for Count Rate: turbidity
In short: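 Samples: 1 mg/mL in PBS pH 7.4 (from DMSO), 1 d at RT, then diluted in 1 mM KCl immediately before measurement. Triplicates, two independent runs averaged.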

[2] = test system: HIV-1 infection of TZM-bl cells; assay: HIV-1 infectivity enhancement assay, β-galactosidase luminescence; assay type: cell-based; details: for Rel-to EFC / n-fold to virus: Fig S8 panels B, D; for Rel-to EFC: infectivity enhancement relative to EF-C; for Log10 Inf. rel. to EF-C: log10 of HIV-1 infection of TZM-bl cells relative to EF-C, Fig S15 source data, asymmetric std dev errors; for Absolute Infectivity / RLU /s (Feb2021): figures match the 1.3 µM column
[3] = test system: TZM-bl cells; assay type: cell-based; details: CellTiter-Glo, mean of n = 3 replicates; for viability 0.26 µM: peptide 0.26 µM; for viability 1.3 µM: peptide 1.3 µM; for viability 6.5 µM: peptide 6.5 µM
In short: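 Viability of TZM-bl cells (10,000 seeded) after 3 days with serially diluted peptides, measured by CellTiter-Glo luminescence. Values normalized to 100% metabolic activity; triplicates.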

[4] = Zeta-potential measurement; assay type: physicochemical; details: for Zeta-pot. / mV: zeta potential of peptide, Fig S15 source data
In short: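 Zeta potentials of aggregated peptides come from electrophoretic mobility (Smoluchowski model) in 1 mM KCl after a 1 d RT incubation at 1 mg/mL in PBS, pH 7.4.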

[5] = Fig S8 panels A, C, asymmetric log errors
[6] = Fig S8 panels B, D, derived count rate of scattered light
[7] = infectivity n-fold relative to virus alone
[8] = infectivity class (low / medium / high) of the peptide in the sequence-pattern analysis, Fig. S22-A4, class limits not given
[9] = derived count rate of scattered light, mean, std deviation in separate column
[10] = Feb2021 run, infectivity n-fold relative to virus alone
[11] = Feb2021 run, log10 of infectivity relative to EF-C
[12] = Feb2021 run, n-fold infectivity relative to EF-C
[13] = infectivity class (low / medium / high) of each library peptide, main list in c1-c6, same classes repeated in sub-lists of sequences containing the hydrophobicity/charge patterns P+,H0,P+,H0,P0,H0,P0, P+,H0,P0,H0,P0,H0,P0, P+,H0,P0,H0
[14] = derived count rate of scattered light
[15] = Feb2021, infectivity relative to virus only
[16] = Feb2021, log10 of infectivity relative to EF-C
[17] = Feb2021, n-fold infectivity relative to EF-C

| Substance | Log Count Rate [1, 5] | Log Count Rate ([1]; Fig S8 panels B, D) | Count Rate [1, 6] | Rel-to EFC [2] | n-fold to virus [2, 7] | infectivity [2, 8] | Log10 Inf. rel. to EF-C [2] | viability 0.26 µM [3] | viability 1.3 µM [3] | viability 6.5 µM [3] | Zeta-pot. / mV [4] | infectivity [2, 13] | Zeta category ( +1 = if > 4 mV;-1 = if < -4 mV; 0 = -4mV to 4 mV) [4] | Zeta Count Rate Category ([1]; category 1 / 0, no key given) | Zeta Count Rate / kcps [1, 14] | Absolute Infectivity / RLU /s (Feb2021) ([2]; Feb2021) | n-fold to virus (Feb2021) [2, 15] | Log10 of Rel to EFC (Feb2021) [2, 16] | Rel-to EFC (Feb-2021) [2, 17] | Zeta Pot. / mV [4] | other results |
| --- | --- | --- | --- | --- | --- | --- | --- | --- | --- | --- | --- | --- | --- | --- | --- | --- | --- | --- | --- | --- | --- |
| RGDSGGGGGGKIKIQIC [TM114 / RC17] | 4.018 | 4.018 | 10416.2 | 0.8654 | 36.36 | high | -0.0628 | 105.8 | 97.96 | 78.89 | 16.7 mV |  |  |  |  |  |  |  |  |  |  |
| RGDKIKIQINMWQ [MG9a] |  |  |  |  |  | high | -0.1175 | 104.4 | 105.9 | 88.59 | 6.59 mV | high | 1 (+1 = if > 4 mV) |  |  |  |  |  |  |  | Zeta Count Rate Category ([1]; category 1 or 0 from count rate, key not given): 1; Zeta Count Rate / kcps ([1]; derived count rate of scattered light, mean, std deviation in next column): 1554 kcps; Zeta Count Rate / kcps [1, 9]: 1554 kcps; Log10 of Rel to EFC (Feb2021) ([2]; Feb2021, Log10 of infectivity relative to EF-C): -0.1175; Rel-to EFC (Feb-2021) ([2]; Feb2021, n-fold enhancement relative to EF-C): 0.763; n-fold to virus (Feb2021) [2, 10]: 32.06; Log10 of Rel to EFC (Feb2021) [2, 11]: -0.1175; Rel-to EFC (Feb-2021) [2, 12]: 0.763; Zeta category ( +1 = if > 4 mV;-1 = if < -4 mV; 0 = -4mV to 4 mV) ([4]; category from zeta potential): 1 (+1 = if > 4 mV); Zeta Pot. / mV ([4]; mean, Std Zeta in next column): 6.59 mV; Zeta Pot. / mV ([4]; mean, Std in separate column): 6.59 mV |
| HHHHKIKIQINMYYYY [TM16] | 3.753 | 3.753 | 5658.77 | 1.108 | 46.56 | high | 0.04454 | 118.7 | 114.9 | 85.37 | 7.807 mV | high | 1 (+1 = if > 4 mV) | 1 | 5659 kcps | 22408.88889 RLU /s | 46.56 | 0.04454 | 1.108 | 7.807 mV |  |
| HIHIQIC [CN12] | 2.416 | 2.416 | 260.57 | 0.2709 | 11.38 |  | -0.5672 | 99.21 | 105 | 101.2 | -3.687 mV | medium | 0 (0 = -4mV to 4 mV) | 1 | 260.6 kcps | 4621 RLU /s | 11.38 | -0.5672 | 0.2709 | -3.687 mV |  |
| RGEKIKIQINM [CN18] |  |  |  |  |  |  | -0.6134 | 93.96 | 87.66 | 79.74 | 15.3 mV | medium | 1 (+1 = if > 4 mV) | 1 | 594.6 kcps | 7838 RLU /s | 10.23 | -0.6134 | 0.2436 | 15.3 mV |  |
| HHHHKAKAKAKAYYYY [TM10] |  |  |  |  |  | low | -1.883 | 107.4 | 112.1 | 104.4 | 7.03 mV |  | 1 (+1 = if > 4 mV) | 1 | 240.9 kcps | 203.3 RLU /s | 0.5495 | -1.883 | 0.01308 | 7.03 mV |  |
| RGECKFKFQF [CN16] |  |  |  |  |  |  | -0.4776 | 105.4 | 106.3 | 102.8 | 23.97 mV | medium | 1 (+1 = if > 4 mV) | 1 | 219.3 kcps | 7411 RLU /s | 13.99 | -0.4776 | 0.3329 | 23.97 mV |  |
| KFKFQFFF [TG12] |  |  |  |  |  |  | -0.3936 | 108.2 | 109.4 | 97 | 13.27 mV | medium | 1 (+1 = if > 4 mV) | 1 | 3039 kcps | 8657 RLU /s | 16.97 | -0.3937 | 0.404 | 13.27 mV | Zeta Count Rate / kcps ([1]; derived count rate from zeta measurement, mean): 3039 kcps; Zeta Count Rate / kcps [1, 9]: 3039 kcps; Zeta Count Rate Category ([1]; key not given): 1; n-fold to virus (Feb2021) [2, 10]: 16.97; Log10 of Rel to EFC (Feb2021) [2, 11]: -0.3937; Rel-to EFC (Feb-2021) [2, 12]: 0.404; Rel-to EFC (Feb-2021) ([2]; infectivity enhancement relative to EF-C (=1), Feb2021 run): 0.404; n-fold to virus (Feb2021) ([2]; infectivity n-fold relative to virus only, Feb2021 run): 16.97; Log10 of Rel to EFC (Feb2021) ([2]; log10 of infectivity relative to EF-C, Feb2021 run): -0.3937; Zeta Pot. / mV ([4]; mean, Std in separate column): 13.27 mV |
